Values joined by “and” are separate entries in the source; they are usually repeats but may differ in a detail not shown here. Equal values may be shown once.
System: adult subjects with Major Depressive Disorder
Assay: Phase 3 open-label 1-year study: HAM-D total score, response and remission
Assay type: in vivo, human
Details: for HAM-D Total Score, Mean Percent Change from Period-Specific Baseline / HAM-D Total Score, Mean Change from Period-Specific Baseline: Low Dose Cohort (FAS); for HAM-D Remission / HAM-D Response / HAM-D total score, Mean % CFB ± SD / HAM-D total score, Mean CFB ± SD: Study Period 1, safety set, 30 mg Cohort (N = 725)
From the text: Secondary Objective: To assess the need for re-treatment with Compound (1) following initial treatment in adults with MDD currently experiencing an MDE over a 1-year period, and to assess the response of initial treatment and re-treatment(s) with Compound (1) following an initial 2-week treatment period in adults with MDD currently experiencing an MDE over a 1-year period.
Secondary Endpoints: The need for re-treatment with Compound (1) as assessed by: time to first re-treatment (Kaplan-Meier curves), number of subjects achieving the requirements for re-treatment, number of re-treatment cycles for each subject, the response of initial treatment and/or re-treatment as assessed by: change from baseline in the 17-item Hamilton Rating Scale for Depression (HAM-D) total score at the end of each 14-day treatment (initial and/or re-treatment) period, HAM-D response at the end of each 14-day treatment (initial and/or re-treatment) period, defined as a ≥50% reduction in HAM-D score from baseline, HAM-D remission at the end of each 14-day treatment (initial and/or re-treatment) period, defined as HAM-D total score≤7, Clinical Global Impression-Improvement (CGI-I) response, defined as “much improved” or “very much improved”, at the end of each 14-day treatment (initial and/or re-treatment) period, change from baseline in Clinical Global Impression-Severity (CGI-S) score at the end of each 14-day treatment (initial and/or re-treatment) period.
Study Population: Subjects were 18-75 years old, diagnosed with major depressive disorder (MDD) with a MADRS total score of ≥28 and a HAM-D total score of ≥20 at Screening and Day 1 (prior to dosing).
Treatment Groups: The 30 mg and 50 mg dose groups were separated by time of enrollment. The study is comprised of two cohorts: one with Compound (1) 30 mg as a starting dose (30 mg Cohort: n=725), an initial cohort with Compound (1) 50 mg as a starting dose (50 mg Cohort: n=199). A patient receiving Compound (1) 30 mg could be dose reduced to 20 mg and patients receiving Compound (1) 50 mg could be dose reduced to 40 mg (based on tolerability). In all cohorts, Compound (1) is self-administered by patients as an oral therapy once nightly with food for 14 days.
Eligible subjects were given Compound (1)—to be taken at home in the evening with meal.
The cohorts pertaining to the different doses that the subjects received were defined as following: • 50 mg cohort: This cohort includes subjects who have initiated treatment with 50 mg and received re-treatment with 50 mg only. • 30 mg cohort: This cohort includes subjects who have initiated treatment with 30 mg regardless of the dose they have received in re-treatments. • Low dose cohort: This cohort includes subjects who have initiated treatment with 30 mg and received re-treatment with 30 mg only. • Dose switch cohort: This cohort includes subjects who have received initial treatment with 30 mg and at least one subsequent re-treatment with 50 mg. • Study Period X: starts on the date of the first dose of Compound (1) in cycle X and goes up to one day prior to the first dose of the next cycle. In some embodiments, X is any number from 1 to 5. • Treatment Period X: starts on the date of the first dose of Compound (1) in cycle X and goes up to one day after the last dose in cycle X. In some embodiments, X is any number from 1 to 5. • Treatment Cycle X: starts on the date of the first dose of Compound (1) in cycle X and goes up to 14 days after the last dose in cycle X. The treatment cycles may be denoted as C1-C5. • Observation period X: starts the day after Treatment Cycle X ends and goes up to one day prior to the start of next treatment cycle. In some embodiments, X is any number from 1 to 5.
Analysis Sets: The safety set was defined as all subjects who were administered study drug. The period-specific safety set includes subjects in the safety set who were administered study drug in the corresponding treatment cycle. […]

[1] = subjects dosed in Cycle 4 (43), Cycle 1, Day 28
[2] = subjects dosed in Cycle 4 (43), Cycle 2, Day 15
[3] = subjects dosed in Cycle 4 (43), Cycle 2, Day 28
[4] = subjects dosed in Cycle 4 (43), Cycle 3, Day 15
[5] = subjects dosed in Cycle 4 (43), Cycle 3, Day 28
[6] = subjects dosed in Cycle 4 (43), Cycle 4, Day 15
[7] = subjects dosed in Cycle 4 (43), Cycle 4, Day 28
[8] = subjects dosed in Cycle 5 (20), Cycle 1, Day 15
[9] = subjects dosed in Cycle 5 (20), Cycle 1, Day 28
[10] = subjects dosed in Cycle 5 (20), Cycle 2, Day 15
[11] = subjects dosed in Cycle 5 (20), Cycle 2, Day 28
[12] = subjects dosed in Cycle 5 (20), Cycle 3, Day 15
[13] = subjects dosed in Cycle 5 (20), Cycle 3, Day 28
[14] = subjects dosed in Cycle 5 (20), Cycle 4, Day 15
[15] = subjects dosed in Cycle 5 (20), Cycle 4, Day 28
[16] = subjects dosed in Cycle 5 (20), Cycle 5, Day 28

C[C@@]1(O)CC[C@H]2[C@H](CC[C@@H]3[C@@H]2CC[C@]2(C)[C@@H](C(=O)Cn4cc(C#N)cn4)CC[C@@H]32)C1 [Compound (1), 1-(2-((3R,5R,8R,9R,10S,13S,14S,17S)-3-hydroxy-3,13-dimethylhexadecahydro-1H-cyclopenta[a]phenanthren-17-yl)-2-oxoethyl)-1H-pyrazole-4-carbonitrile]
HAM-D Total Score, Mean Percent Change from Period-Specific Baseline (subjects dosed in Cycle 4 (43), Cycle 1, Day 15): −68.2 | HAM-D Total Score, Mean Change from Period-Specific Baseline [1]: −13.0 | HAM-D Total Score, Mean Percent Change from Period-Specific Baseline [1]: −52.0 | HAM-D Total Score, Mean Change from Period-Specific Baseline [2]: −12.1 | HAM-D Total Score, Mean Percent Change from Period-Specific Baseline [2]: −49.6 | HAM-D Total Score, Mean Change from Period-Specific Baseline [3]: −10.4 | HAM-D Total Score, Mean Percent Change from Period-Specific Baseline [3]: −42.4 | HAM-D Total Score, Mean Change from Period-Specific Baseline [4]: −12.7 | HAM-D Total Score, Mean Percent Change from Period-Specific Baseline [4]: −54.1 | HAM-D Total Score, Mean Change from Period-Specific Baseline [5]: −11.1 | HAM-D Total Score, Mean Percent Change from Period-Specific Baseline [5]: −46.9 | HAM-D Total Score, Mean Change from Period-Specific Baseline [6]: −11.7 | HAM-D Total Score, Mean Percent Change from Period-Specific Baseline [6]: −50.0 | HAM-D Total Score, Mean Change from Period-Specific Baseline [7]: −9.9 | HAM-D Total Score, Mean Percent Change from Period-Specific Baseline [7]: −41.9 | HAM-D Total Score, Mean Change from Period-Specific Baseline [8]: −16.5 | HAM-D Total Score, Mean Percent Change from Period-Specific Baseline [8]: −66.9 | HAM-D Total Score, Mean Change from Period-Specific Baseline [9]: −11.3 | HAM-D Total Score, Mean Percent Change from Period-Specific Baseline [9]: −45.7 | HAM-D Total Score, Mean Change from Period-Specific Baseline [10]: −11.1 | HAM-D Total Score, Mean Percent Change from Period-Specific Baseline [10]: −45.1 | HAM-D Total Score, Mean Change from Period-Specific Baseline [11]: −9.2 | HAM-D Total Score, Mean Percent Change from Period-Specific Baseline [11]: −37.8 | HAM-D Total Score, Mean Change from Period-Specific Baseline [12]: −11.9 | HAM-D Total Score, Mean Percent Change from Period-Specific Baseline [12]: −51.5 | HAM-D Total Score, Mean Change from Period-Specific Baseline [13]: −10.7 | HAM-D Total Score, Mean Percent Change from Period-Specific Baseline [13]: −46.1 | HAM-D Total Score, Mean Change from Period-Specific Baseline [14]: −11.6 | HAM-D Total Score, Mean Percent Change from Period-Specific Baseline [14]: −48.9 | HAM-D Total Score, Mean Change from Period-Specific Baseline [15]: −7.7 | HAM-D Total Score, Mean Percent Change from Period-Specific Baseline [15]: −32.6 | HAM-D Total Score, Mean Change from Period-Specific Baseline (subjects dosed in Cycle 5 (20), Cycle 5, Day 15): 17, −11.6/— | HAM-D Total Score, Mean Change from Period-Specific Baseline [16]: −7.1 | HAM-D Total Score, Mean Percent Change from Period-Specific Baseline [16]: −30.6 | Withdrawn in Treatment Cycle 1: Exit for non-response, n (%) (Low Dose Cohort (n = 645)): 146 (22.6%) | HAM-D Remission (Day 8): (17.8%) | HAM-D Response (Day 8): 295/704 (41.9%) | HAM-D total score, Mean % CFB ± SD (Day 8): −42.9 ± 25.68% | HAM-D total score, Mean CFB ± SD (Day 8): −10.9 ± 6.75 | HAM-D total score, Mean % CFB ± SD (Day 15): −60.0 ± 25.61% | HAM-D total score, Mean CFB ± SD (Day 15): −15.2±7.1 and −15.2 ± 7.07 | HAM-D Remission (Day 28): (32.6%) | HAM-D Response (Day 28): 372/681 (54.6%) | HAM-D total score, Mean % CFB ± SD (Day 28): −51.9 ± 29.96% | HAM-D total score, Mean CFB ± SD (Day 28): −13.3 ± 8.07 | HAM-D Remission (Day 70): (30.0%) | HAM-D Response (Day 70): 193/384 (50.3%) | HAM-D total score, Mean % CFB ± SD (Day 70): −46.6 ± 34.25% | HAM-D total score, Mean CFB ± SD (Day 70): −12.1 ± 9.12 | HAM-D Remission (Day 126): (47.3%)

Reference: patent US20240245711A1, “A 19-NOR C3,3-DISUBSTITUTED C21-N-PYRAZOLYL STEROID FOR THE TREATMENT OF MAJOR DEPRESSIVE DISORDER” (Sage Therapeutics, Inc., priority 2021, published 2024)
